The values below come from PMC6150298, “Natural Deep Eutectic Solvents (NADES) to Enhance Berberine Absorption: An In Vivo Pharmacokinetic Study” (Molecules : A Journal of Synthetic Chemistry and Natural …, 2017).

The nature of data set [1]: Solubility of berberine in NADES and reference solvents (HPLC-DAD). It counts as physicochemical. As for the experimental part:
Samples were placed on a magnetic stirrer (Stuart, Bibby Scientific Ltd., Stone, Staffordshire, UK) at 22 °C for 1 h, then centrifuged for 21 min at 13,000 rpm with a 5415 R centrifuge (Eppendorf, Hamburg, Germany). For quantitative measurement of solubilized berberine, a portion (100 μL) of the clear supernatant obtained after centrifugation was diluted 1:5 (v/v) in ethanol.
For quantification, stock standard solution of berberine (100 μg/mL) was prepared dissolving the analytical standard in methanol using an ultrasonic bath. A calibration curve was obtained injecting standard solutions of berberine at different concentrations, namely 50, 25, 10, 5 and 1 μg/mL. The following calibration curve was obtained: […] (R^2 = 0.9997). The Limit of Quantification (LOQ) was 1 μg/mL.
For HPLC-DAD analysis, an Agilent series 1260 HPLC instrument (Agilent, Cernusco Sul Naviglio, MI, Italy) equipped with a quaternary pump, a diode-array detector, an auto sampler and a column oven compartment was used. Analyses were performed on Eclipse XDB C8 column (5 μm, 4.6 mm × 150 mm, Agilent). The mobile phase was (A) water–formic acid (99:1 v/v) and (B) acetonitrile. A gradient program was used as follows: 0 → 11th min: A:B (90:10) → A:B (0:100) 11 → 12th min: A:B (0:100) → A:B (0:100) 12 → 12, 10th min: A:B (0:100) → A:B (90:10) 12, 10 → 14th min: A:B (90:10) → A:B (90:10). The mobile phase flow rate was 1 mL/min and the injection volume was 10 μL. The chromatogram was recorded at 350 nm and spectral data for all peaks were obtained in the range of 190–400 nm. The retention time of berberine under these analysis conditions was 6.16 min.

For data set [2] the following is noted: human subjects, single oral dose of 500 mg of berberine hydrochloride, cited from earlier work; for time after which the plasma level reaches a plateau: plateau persisted up to 24 h.
On the set-up of data set [3]: method as in PMID 26092760. To be noted: rats, single oral administration of berberine 200 mg/kg; cited from earlier work.
The subject of a further data set is mice. The conditions noted are these: cited from earlier work.
The subject of the next data set is rat. To be noted: cited from earlier work.

One may read the solubility as how much of the substance goes into solution per volume. A lower solubility goes with a poorly soluble substance. A word on the LD50: it is the dose expected to kill half of the subjects tested.

Compound `COc1ccc2cc3[n+](cc2c1OC)CCc1cc2c(cc1-3)OCO2` [berberine, Berberine] had a solubility at 1 h in data set [1] (water, 22 °C) of 2100 µg/mL. In data set [2], the plasma levels entry is on record as “lower than 0.1 nM” and the “time after which the plasma level reaches a plateau” value is “one”. Besides, the “total recovery of native compounds” value in data set [3] is recorded as 22.83%.

Water: the “Berberine Solubility at 22 °C” value in data set [1] was 2100 ± 50 µg/mL.

Consider `NC(N)=O` [urea], for which the 50% lethal dose (LD50) in the data set with mice is recorded as 11,000 mg/kg.

Regarding `O=C(O)CC(O)C(=O)O` (centres unmarked) [malic acid], the LD50 with rat is on record as 1600 mg/kg.

As to `CC(O)C(=O)O` (centres unmarked) [lactic acid], in the data set on rat, the LD50 is 3543 mg/kg.

Turning to `COc1cc2c(cc1O)CC[n+]1cc3c(OC)c(OC)ccc3cc1-2` [jatrorrhizine], in data set [2], the plasma levels result is “lower than 0.1 nM” and the “time after which the plasma level reaches a plateau” value was 2 h.

For the compound Ethanol, the “Berberine Solubility at 22 °C” value in data set [1] stood at 2750 ± 50 µg/mL.
